This note sets out measurements from ChEMBL document CHEMBL1201862, “PubChem BioAssay data set” (2004).

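Protocol summary: plate cells (96-well), add compound at 5 concentrations, incubate 48 h, interpolate endpoints linearly. Abbreviation: GI50, concentration required for 50% inhibition of growth.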 Calls of active or inactive are those of the source. No stated cut-off is given here; in the data, active = GI50 up to about 1.1 µM and inactive = higher.

What all share (test): NCI anticancer screen, dose series, 48 h
In assay [1] the test system is MDA-MB-435.
For assay [2], the system named is LOX IMVI.
The test system of assay [3] is HOP-62.
Assay [4] relates to UACC-257.
Assay [5] concerns HCT-15.
In assay [6] the test system is COLO 205.
In assay [7] the test system is NCI/ADR-RES.
For assay [8], the system named is NCI-H460.
Assay [9] relates to OVCAR-5.
Assay [10] relates to SK-MEL-2.
Assay [11] has as its system OVCAR-8.
Assay [12] relates to SF-295.
Assay [13] has as its system OVCAR-3.
The test system of assay [14] is ACHN.
Assay [15] relates to CCRF-CEM.
Assay [16] deals with SN12C.
The test system of assay [17] is SF-268.
In assay [18] the test system is MDA-MB-231.
The subject of assay [19] is MOLT-4.
The test system of assay [20] is KM12.

In the case of `COc1cc2c(cc1O)C(Cc1ccc(OCc3ccccc3)c(OCc3ccccc3)c1)N(C(=O)NCCc1ccccc1)CC2` (centres undefined), the GI50 in assay [1] was > 100 µM (inactive); in assay [2], > 100 µM (inactive); in assay [3] it was > 100 µM (inactive); in assay [4], > 100 µM (inactive); in assay [5], above 100 µM; in assay [6], > 100 µM (inactive). Besides, the GI50 in assay [7], in assay [8], in assay [9], in assay [10], in assay [11] and in assay [12] was > 100 µM (inactive) throughout. For the same compound, the GI50 was > 100 µM (inactive) in assay [13]; > 100 µM (inactive) in [14]; 15 µM (inactive) in [15]; > 100 µM (inactive) in assay [16]; > 100 µM (inactive) in [17]; > 100 µM (inactive) in assay [18]. Further, the GI50 in assay [19] and in assay [20] was > 100 µM (inactive) throughout.

For the compound `CC1=COC2=C(C)C(=O)C(=O)c3c(C)ccc1c32` [MANSONONE F], the GI50 in assay [1] was 1.9 µM (inactive); in assay [2], 3.66 µM (inactive); in [3], 4.52 µM (inactive); in [4] it was 7.23 µM (inactive); in assay [5], 2.43 µM; in [6] it was 2.55 µM (inactive). Besides, the GI50 in assay [7] is 2.1 µM (inactive); in assay [8] it was 2.18 µM (inactive); in assay [9], 18.2 µM (inactive); in [10], 5.56 µM (inactive); in assay [11], 2.7 µM (inactive); in [12], 5.48 µM (inactive). Besides, the GI50 in assay [13] was 0.349 µM (active); in assay [14] it was 8.3 µM (inactive); in assay [15], 2.98 µM (inactive); in assay [16] it was 3.71 µM (inactive); in assay [17] it was 4.44 µM (inactive); in assay [18], 3.28 µM (inactive). For the same compound, the GI50 in assay [19] is 2.56 µM (inactive); in assay [20], 3.93 µM (inactive).

As to `C=CCC1NCCC2=C1C(S(=O)(=O)c1ccc(C)cc1)c1ccccc12` (centres undefined), the GI50 in assay [1] is 5.47 µM (inactive); in [2] it was 8.91 µM (inactive); in assay [3], 14.5 µM (inactive); in assay [4], 20.2 µM (inactive); in assay [5] it was 11.9 µM; in assay [6] it was 2 µM (inactive). Besides, the GI50 in [7] was 12.6 µM (inactive); in [8] it was 11.7 µM (inactive); in assay [9], 18.1 µM (inactive); in assay [10], 13.5 µM (inactive); in [11], 14.3 µM (inactive); in assay [12] it was 13.7 µM (inactive). Besides, the GI50 in assay [13] was 12.5 µM (inactive); in [14], 7.16 µM (inactive); in [15], 7.96 µM (inactive); in assay [16], 14.4 µM (inactive); in [17], 14.9 µM (inactive); in assay [18] it was 12.1 µM (inactive). Besides, the values for the GI50 in assay [19] and in assay [20] were 6.56 µM (inactive) and 9.46 µM (inactive), respectively.

With `O=C(c1ccc(F)cc1)c1cccc(C(=O)c2ccc(F)cc2)n1`, the GI50 is > 100 µM (inactive) in assay [1]; 60.7 µM (inactive) in assay [2]; 20.1 µM (inactive) in assay [3]; 47.4 µM (inactive) in [4]; above 100 µM in assay [5]; > 100 µM (inactive) in assay [6]. Moreover, the GI50 was 90.8 µM (inactive) in assay [7]; > 100 µM (inactive) in [8]; > 95.3 µM (inactive) in [9]; 27.7 µM (inactive) in assay [10]; 81.5 µM (inactive) in assay [11]; 3.4 µM (inactive) in assay [12]. Also, the GI50 in assay [13] is > 100 µM (inactive); in assay [14] it was 46.2 µM (inactive); in assay [15], > 100 µM (inactive); in assay [16], 55.2 µM (inactive); in assay [17], 24.6 µM (inactive); in assay [18] it was 38.6 µM (inactive). For the same compound, the GI50 in assay [19] and in assay [20] was > 100 µM (inactive) each time.

Turning to `COc1ccccc1N1C(=O)CC(=O)N(C(=O)CCCCCCCCC(=O)N2C(=O)CC(=O)N(c3ccccc3OC)C2=S)C1=S`, the GI50 in assay [1] is > 100 µM (inactive); in [2] it was 95.3 µM (inactive); in assay [3], > 100 µM (inactive); in assay [4], > 100 µM (inactive); in assay [5], 96.4 µM; in [6], > 100 µM (inactive). For the same compound, the GI50 in assay [7] is 91.6 µM (inactive); in assay [8], 83.9 µM (inactive); in [9] it was > 100 µM (inactive); in assay [10], > 100 µM (inactive); in [11], 63.2 µM (inactive); in [12], > 100 µM (inactive). In addition, the GI50 was 55.2 µM (inactive) in assay [13]; > 100 µM (inactive) in assay [14]; 27.3 µM (inactive) in assay [15]; > 100 µM (inactive) in assay [16]; > 100 µM (inactive) in assay [17]; 43.7 µM (inactive) in assay [18]. Further, the GI50 was 35.1 µM (inactive) in [19] and 53.8 µM (inactive) in assay [20].

For the compound `COc1ccc2nc3c(c(N)c2c1)C1CCC3C1(C)C` (centres undefined), the GI50 is 33 µM (inactive) in assay [1]; 35.9 µM (inactive) in assay [2]; 16 µM (inactive) in [3]; 18.9 µM (inactive) in [4]; 51.1 µM in assay [5]; 17.1 µM (inactive) in [6]. The GI50 in [7] was > 100 µM (inactive); in [8] it was 31.2 µM (inactive); in assay [9] it was 41 µM (inactive); in assay [10], 25.5 µM (inactive); in [11] it was 71.1 µM (inactive); in assay [12], 20.6 µM (inactive). In addition, the GI50 in [13] is 31.9 µM (inactive); in [14], > 100 µM (inactive); in [15] it was 14.1 µM (inactive); in assay [16], 52.1 µM (inactive); in assay [17], 72.1 µM (inactive); in [18] it was 24 µM (inactive). For the same compound, the GI50 in assay [19] was 46.9 µM (inactive); in assay [20] it was 42.9 µM (inactive).

On to `O=C1CSC(c2ccc([N+](=O)[O-])cc2)N1c1ccc(-n2c(-c3ccccc3)nc3ccccc3c2=O)cc1` (centres undefined), for which the GI50 in [1] was > 100 µM (inactive); in assay [2], > 100 µM (inactive); in assay [3], > 100 µM (inactive); in [4] it was > 100 µM (inactive); in [5] it was 41.3 µM; in assay [6], > 100 µM (inactive). Besides, the GI50 in assay [7] is 60.7 µM (inactive); in assay [8], > 100 µM (inactive); in assay [9], > 10 µM (inactive); in assay [10], > 100 µM (inactive); in [11], > 100 µM (inactive); in [12], > 100 µM (inactive). The GI50 was > 100 µM (inactive) in [13]; 77.8 µM (inactive) in [14]; > 100 µM (inactive) in assay [15]; > 100 µM (inactive) in assay [16]; 38.5 µM (inactive) in assay [17]; 70.3 µM (inactive) in assay [18]. Further, the figures for the GI50 in assay [19] and in [20] were 29.5 µM (inactive) and 31.7 µM (inactive), respectively.

For the compound `CC1=NCCN=C(C)C1/N=N/c1ccc2[nH]c(C)nc2c1`, the GI50 in assay [1] was 8.53 µM (inactive); in assay [2], 20.7 µM (inactive); in assay [3] it was 22.1 µM (inactive); in assay [4] it was 11.3 µM (inactive); in assay [5], 8.77 µM; in [6], 15.2 µM (inactive). For the same compound, the GI50 in assay [7] is 12 µM (inactive); in assay [8], 18.2 µM (inactive); in assay [9], 17.6 µM (inactive); in [10] it was 19.2 µM (inactive); in assay [11] it was 12.2 µM (inactive); in assay [12], 13.2 µM (inactive). Moreover, the GI50 in assay [13] was 19.5 µM (inactive); in assay [14] it was 15.6 µM (inactive); in assay [15], 4.97 µM (inactive); in [16], 11.7 µM (inactive); in [17] it was 21.2 µM (inactive); in assay [18] it was 12.7 µM (inactive). Further, the results for the GI50 in [19] and in assay [20] were 6.38 µM (inactive) and 11.7 µM (inactive), respectively.

On to `CCOC(OCC)[C@@H]1C[C@@H]2N(O[C@H](OC3CCCC3(c3ccccc3)c3ccccc3)[C@H](OC(C)=O)[C@@]2(CC)Cc2ccc(OC)c(OC)c2)O1` (some centres undefined), for which the GI50 in [1] is > 100 µM (inactive); in assay [2] it was > 100 µM (inactive); in assay [3], > 100 µM (inactive); in assay [4], > 100 µM (inactive); in assay [5] it was above 100 µM; in assay [6] it was > 100 µM (inactive). Moreover, the GI50 in assay [7], in [8], in assay [9], in assay [10], in assay [12] and in assay [13] was > 100 µM (inactive) each time. Moreover, the GI50 in assay [14], in assay [15], in assay [16], in assay [17], in [18] and in assay [19] was > 100 µM (inactive) throughout. The GI50 in assay [20] was > 100 µM (inactive).

For `C/C(=N\NS(=O)(=O)c1ccc(C)cc1)C(CN(C)C)C(c1ccccc1)c1c(O)c2ccccc2oc1=O` (centres undefined), the GI50 in assay [1] is > 100 µM (inactive); in assay [2] it was > 100 µM (inactive); in [3] it was 89.9 µM (inactive); in [4] it was > 100 µM (inactive); in [5], above 100 µM; in [6], > 95.3 µM (inactive). Moreover, the GI50 in assay [7], in assay [8], in [9], in assay [10], in assay [11] and in assay [12] was > 100 µM (inactive) in each case. In addition, the GI50 in assay [13], in assay [14], in assay [15], in assay [16], in assay [17] and in assay [18] was > 100 µM (inactive) throughout. The GI50 in assay [19] and in assay [20] was > 100 µM (inactive) in each case.
